# Reference: patent US20230053688A1, “METHODS TO ALTER LATENCY IN EBV+ MALIGNANCIES” (Cornell University, priority 2020, published 2023)
# Counter-ions that a name gives are not always drawn. Like-named read-outs stand apart in the source and are kept apart here.
# System: LMP1 expression in Kem I cells
# Experiment: microbe, parasite or virus in culture
# Format: cell-based, EBV
# Conditions: for fold induction at 2.5 µM: human gammaherpesvirus 4, 48 h; for Average LMP1 Fold Increase / Replicate 1-LMP1 Fold Increase / Replicate 2-LMP1 Fold Increase: Kem I cells, 48 hours
# [1] = read-out: Average LMP1 Fold Increase, Kem I cells, dose 2.5 uM, 48 hours, LMP1 transcript by in-well qRT-PCR, average of the two replicates
# [2] = read-out: Replicate 1-LMP1 Fold Increase, Kem I cells, dose 2.5 uM, 48 hours, LMP1 transcript by in-well qRT-PCR, screen replicate 1
# [3] = read-out: Replicate 2-LMP1 Fold Increase, Kem I cells, dose 2.5 uM, 48 hours, LMP1 transcript by in-well qRT-PCR, screen replicate 2
# [4] = read-out: Average LMP1 Fold Increase, Kem I cells, 2.5 uM, 48 hours, average of replicates 1 and 2
# [5] = read-out: Replicate 1-LMP1 Fold Increase, Kem I cells, 2.5 uM, 48 hours, fold change in LMP1 transcript vs vehicle
# [6] = read-out: Replicate 2-LMP1 Fold Increase, Kem I cells, 2.5 uM, 48 hours, fold change in LMP1 transcript vs vehicle
# [7] = 2.5 uM, average of replicates 1 and 2
# [8] = 2.5 uM, fold change in LMP1 transcript vs vehicle
# [9] = dose 2.5 uM, LMP1 transcript by in-well qRT-PCR, average of the two replicates
# [10] = dose 2.5 uM, LMP1 transcript by in-well qRT-PCR, screen replicate 1
# [11] = dose 2.5 uM, LMP1 transcript by in-well qRT-PCR, screen replicate 2
compound,measurement,setting,value
O=S(=O)(c1ccccc1)N(CC(F)(F)F)c1ccc(C(O)(C(F)(F)F)C(F)(F)F)cc1 [T0901317],fold induction at 2.5 µM,[1],0.44
same,fold induction at 2.5 µM,[2],0.41
same,fold induction at 2.5 µM,[3],0.47
CC(C)C[C@H](NC(=O)CNC(=O)c1cc(Cl)ccc1Cl)B(O)O [MLN2238],fold induction at 2.5 µM,[4],112
same,fold induction at 2.5 µM,[5],86.8
same,fold induction at 2.5 µM,[6],138
C/C(=C\C(=O)Nc1ccccc1C(=O)O)c1ccc2ccccc2c1 [BIBR 1532],Average LMP1 Fold Increase,[7],0.77
same,Replicate 1-LMP1 Fold Increase,[8],0.63
same,Replicate 2-LMP1 Fold Increase,[8],0.91
c1cc(-c2cnn3cc(-c4ccc(N5CCNCC5)cc4)cnc23)c2cccnc2c1 [LDN-212854],Average LMP1 Fold Increase,[7],0.62
same,Replicate 1-LMP1 Fold Increase,[8],0.96
same,Replicate 2-LMP1 Fold Increase,[8],0.27
CC(C)[C@H](O)C(=O)N[C@@H](C)C(=O)N[C@@H]1C(=O)N(C)CCc2ccccc21 [Semagacestat (LY450139)],Average LMP1 Fold Increase,[7],0.45
same,Replicate 1-LMP1 Fold Increase,[8],0.31
same,Replicate 2-LMP1 Fold Increase,[8],0.59
O=C(Nc1ccncc1)c1cc([N+](=O)[O-])ccc1Cl [T0070907],Average LMP1 Fold Increase,[9],0.56 fold
same,Replicate 1-LMP1 Fold Increase,[10],0.63 fold
same,Replicate 2-LMP1 Fold Increase,[11],0.50 fold
Cc1[nH]c2ccccc2c1CCNC(=O)c1cccs1 [CK-636],Average LMP1 Fold Increase,[7],1.27
same,Replicate 1-LMP1 Fold Increase,[8],0.69
same,Replicate 2-LMP1 Fold Increase,[8],1.84
Cc1nn(-c2ccccc2)c(C)c1/C=N/N1CCN(Cc2ccccc2)CC1 [SANT-1],Average LMP1 Fold Increase,[7],0.64
same,Replicate 1-LMP1 Fold Increase,[8],0.31
same,Replicate 2-LMP1 Fold Increase,[8],0.97
(−)-MK 801 Maleate,Average LMP1 Fold Increase,[7],0.88
same,Replicate 1-LMP1 Fold Increase,[8],0.94
same,Replicate 2-LMP1 Fold Increase,[8],0.81
CC(C)c1noc(N2CCC(COc3ccc(-c4ccc(S(C)(=O)=O)cc4)nc3)CC2)n1 [GSK1292263],Average LMP1 Fold Increase,[7],0.27
same,Replicate 1-LMP1 Fold Increase,[8],0.20
same,Replicate 2-LMP1 Fold Increase,[8],0.34
CCc1nc(N)nc(N)c1-c1ccc(Cl)cc1 [Pyrimethamine],fold induction at 2.5 µM,[4],0.8
same,fold induction at 2.5 µM,[5],0.7
same,fold induction at 2.5 µM,[6],0.9
Oc1ccc2ccccc2c1SSc1c(O)ccc2ccccc12 [IPA-3],Average LMP1 Fold Increase,[7],0.27
same,Replicate 1-LMP1 Fold Increase,[8],0.21
same,Replicate 2-LMP1 Fold Increase,[8],0.33
CC(C)NC[C@@H](C(=O)N1CCN(c2ncnc3c2[C@H](C)C[C@H]3O)CC1)c1ccc(Cl)cc1 [GDC-0068],Average LMP1 Fold Increase,[7],0.27
same,Replicate 1-LMP1 Fold Increase,[8],0.27
same,Replicate 2-LMP1 Fold Increase,[8],0.27
Nc1cccc(-c2cc3c(Oc4cccc(O)c4)ncnc3[nH]2)c1 [TWS119],Average LMP1 Fold Increase,[9],0.56 fold
same,Replicate 1-LMP1 Fold Increase,[10],0.62 fold
same,Replicate 2-LMP1 Fold Increase,[11],0.49 fold
O=C(/C=C\n1cnc(-c2cc(C(F)(F)F)cc(C(F)(F)F)c2)n1)NNc1cnccn1 [KPT-330],Average LMP1 Fold Increase,[7],0.35
same,Replicate 1-LMP1 Fold Increase,[8],0.28
same,Replicate 2-LMP1 Fold Increase,[8],0.42
I-BET151 (GSK1210151A),Average LMP1 Fold Increase,[7],1.39
same,Replicate 1-LMP1 Fold Increase,[8],1.41
same,Replicate 2-LMP1 Fold Increase,[8],1.38
COc1ccc(-c2cnc3c(-c4cccc5ncccc45)cnn3c2)cc1 [ML347],Average LMP1 Fold Increase,[7],0.34
same,Replicate 1-LMP1 Fold Increase,[8],0.19
same,Replicate 2-LMP1 Fold Increase,[8],0.49
COc1cc(N2CCC(N)CC2)ccc1Nc1ncc(Cl)c(-c2c[nH]c3ccccc23)n1 [AZD3463],Average LMP1 Fold Increase,[7],0.26
same,Replicate 1-LMP1 Fold Increase,[8],0.28
same,Replicate 2-LMP1 Fold Increase,[8],0.24
"Cl.NC(=O)c1cnc(N[C@@H]2CCCC[C@@H]2N)nc1Nc1cccc(-n2nccn2)c1 [PRT062607(P505-15, BIIB057) HCl]",Average LMP1 Fold Increase,[7],0.54
same,Replicate 1-LMP1 Fold Increase,[8],0.25
same,Replicate 2-LMP1 Fold Increase,[8],0.83
C[S+]([O-])c1ccc(-c2nc(-c3ccc(F)cc3)c(-c3ccncc3)[nH]2)cc1 (stereo not drawn) [SB203580],Average LMP1 Fold Increase,[7],0.57
same,Replicate 1-LMP1 Fold Increase,[8],0.54
same,Replicate 2-LMP1 Fold Increase,[8],0.59
C=C1C[C@@H]2[C@H](CC[C@]3(C)C(=O)CC[C@@H]23)[C@@]2(C)C=CC(=O)C=C12 [Exemestane],fold induction at 2.5 µM,[4],0.7
same,fold induction at 2.5 µM,[5],0.53
same,fold induction at 2.5 µM,[6],0.86
CCN1CCC[C@H]1CNC(=O)c1cc(S(N)(=O)=O)ccc1OC [Levosulpiride],fold induction at 2.5 µM,[4],0.5
same,fold induction at 2.5 µM,[5],0.7
same,fold induction at 2.5 µM,[6],0.3
CC(C)c1onc(-c2c(Cl)cccc2Cl)c1COc1ccc(/C=C/c2cccc(C(=O)O)c2)c(Cl)c1 [GW4064],Average LMP1 Fold Increase,[7],0.72
same,Replicate 1-LMP1 Fold Increase,[8],0.94
same,Replicate 2-LMP1 Fold Increase,[8],0.50
CCOC(=O)N1CCC(=C2c3ccc(Cl)cc3CCc3cccnc32)CC1 [Loratadine],fold induction at 2.5 µM,[4],0.28
same,fold induction at 2.5 µM,[5],0.24
same,fold induction at 2.5 µM,[6],0.32
CC(=O)OCC(=O)NCCCOc1cccc(CN2CCCCC2)c1 [Roxatidine Acetate HCl],fold induction at 2.5 µM,[4],0.2
same,fold induction at 2.5 µM,[5],0.15
same,fold induction at 2.5 µM,[6],0.24
Cc1ccc(S(=O)(=O)c2ccc([N+](=O)[O-])o2)cc1 [NSC697923],Average LMP1 Fold Increase,[7],0.09
same,Replicate 1-LMP1 Fold Increase,[8],0.10
same,Replicate 2-LMP1 Fold Increase,[8],0.09
CC(=O)Nc1cccc2c1c(Sc1ccc(Cl)cc1)c(C)n2CC(=O)O [AZD1981],Average LMP1 Fold Increase,[7],0.80
same,Replicate 1-LMP1 Fold Increase,[8],1.13
same,Replicate 2-LMP1 Fold Increase,[8],0.46
CC(C)c1ccc(NC(=O)Cn2cnc3c2c(=O)n(C)c(=O)n3C)cc1 [HC-030031],Average LMP1 Fold Increase,[7],0.28
same,Replicate 1-LMP1 Fold Increase,[8],0.32
same,Replicate 2-LMP1 Fold Increase,[8],0.24
Cc1nnc(C(=O)NC(C)(C)c2nc(C(=O)NCc3ccc(F)cc3)c(O)c(=O)n2C)o1 [Raltegravir (MK-0518)],Average LMP1 Fold Increase,[7],1.31
same,Replicate 1-LMP1 Fold Increase,[8],0.59
same,Replicate 2-LMP1 Fold Increase,[8],2.02
SN-38,Average LMP1 Fold Increase,[7],1.10
same,Replicate 1-LMP1 Fold Increase,[8],0.95
same,Replicate 2-LMP1 Fold Increase,[8],1.26
CNC(=O)[C@H](Cc1ccccc1)NC(=O)[C@H](CC(C)C)[C@H](CSc1cccs1)C(=O)NO [Batimastat (BB-94)],Average LMP1 Fold Increase,[7],0.46
same,Replicate 1-LMP1 Fold Increase,[8],0.38
same,Replicate 2-LMP1 Fold Increase,[8],0.55
O=C1NC(=O)/C(=C/c2ccc(-c3ccc(F)cc3O)o2)S1 [AS-252424],Average LMP1 Fold Increase,[7],0.53
same,Replicate 1-LMP1 Fold Increase,[8],0.57
same,Replicate 2-LMP1 Fold Increase,[8],0.49
CC[C@@H]1/C=C/C=C/C[C@H](C)[C@H](O)[C@](C)(O)C(=O)[C@H](C)[C@@H](O)[C@H](C)C(=O)[C@H](C)[C@@H](O)[C@H](C)/C=C/C(=O)O[C@H]2[C@@H](C)[C@@H](CC1)O[C@@]1(CC[C@@H](C)[C@@H](C[C@H](C)O)O1)[C@@H]2C [Oligomycin A],Average LMP1 Fold Increase,[7],1.40
same,Replicate 1-LMP1 Fold Increase,[8],1.03
same,Replicate 2-LMP1 Fold Increase,[8],1.76
CN1CCCCC1Cn1cc(C(=O)c2cc([N+](=O)[O-])ccc2I)c2ccccc21 (stereo not drawn) [AM1241],Average LMP1 Fold Increase,[7],0.79
same,Replicate 1-LMP1 Fold Increase,[8],1.01
same,Replicate 2-LMP1 Fold Increase,[8],0.56
CCc1c(C(=O)NCCc2ccc(N3CCCCC3)cc2)[nH]c2ccc(Cl)cc12 [Org 27569],Average LMP1 Fold Increase,[7],0.51
same,Replicate 1-LMP1 Fold Increase,[8],0.49
same,Replicate 2-LMP1 Fold Increase,[8],0.53
O=C(NC(NC(=S)Nc1ccc(F)c([N+](=O)[O-])c1)C(Cl)(Cl)Cl)C(c1ccccc1)c1ccccc1 (stereo not drawn) [CGK 733],Average LMP1 Fold Increase,[7],0.71
same,Replicate 1-LMP1 Fold Increase,[8],0.58
same,Replicate 2-LMP1 Fold Increase,[8],0.84
CC(C)CCN1c2nc(Nc3cc(F)c(O)c(F)c3)ncc2N(C)C(=O)C1C (stereo not drawn) [BI-D1870],Average LMP1 Fold Increase,[7],0.50
same,Replicate 1-LMP1 Fold Increase,[8],0.47
same,Replicate 2-LMP1 Fold Increase,[8],0.52
"CO[C@H]1C[C@@H]2CC[C@@H](C)[C@@](O)(O2)C(=O)C(=O)N2CCCC[C@H]2C(=O)O[C@H]([C@H](C)C[C@@H]2CC[C@@H](OC(=O)C(C)(CO)CO)[C@H](OC)C2)CC(=O)[C@H](C)/C=C(\C)[C@@H](O)[C@@H](OC)C(=O)[C@H](C)C[C@H](C)/C=C/C=C/C=C/1C [Temsirolimus (CCI-779, NSC 683864)]",Average LMP1 Fold Increase,[9],155.77 fold
same,Replicate 1-LMP1 Fold Increase,[10],1.06 fold
same,Replicate 2-LMP1 Fold Increase,[11],310.48 fold
CC(C)OC(=O)OCOP(=O)(CO[C@H](C)Cn1cnc2c(N)ncnc21)OCOC(=O)OC(C)C [Tenofovir Disoproxil Fumarate],fold induction at 2.5 µM,[1],0.56
same,fold induction at 2.5 µM,[2],0.21
same,fold induction at 2.5 µM,[3],0.9
COc1ccccc1N1CCN(CC(O)COc2cccc3ccccc23)CC1 (stereo not drawn) [Naftopidil],fold induction at 2.5 µM,[4],1.15
same,fold induction at 2.5 µM,[5],1.36
same,fold induction at 2.5 µM,[6],0.95
SNS-314 Mesylate,Average LMP1 Fold Increase,[7],0.51
same,Replicate 1-LMP1 Fold Increase,[8],0.71
same,Replicate 2-LMP1 Fold Increase,[8],0.32
Cn1cc(/C=C2\C(=O)Nc3cccnc32)c2ccccc21 [GW441756],Average LMP1 Fold Increase,[7],0.80
same,Replicate 1-LMP1 Fold Increase,[8],0.70
same,Replicate 2-LMP1 Fold Increase,[8],0.89
O=c1ncn2nc(Sc3ccc(F)cc3F)ccc2c1-c1c(Cl)cccc1Cl [VX-745],fold induction at 2.5 µM,[1],0.49
same,fold induction at 2.5 µM,[2],0.75
same,fold induction at 2.5 µM,[3],0.24
